Here are results for 12 compounds from publication PMC9851200, “Multiparameter phenotypic screening for endogenous TFEB and TFE3 translocation identifies novel chemical series modulating lysosome function” (Autophagy, 2022).

For data set [1], the system named is endogenous TFEB. As to the kind of experiment: TFEB nuclear translocation, immunocytochemistry high-content imaging. It is filed as cell-based.
In data set [2] the test system is endogenous TFE3. As to the kind of experiment: TFE3 nuclear translocation, immunocytochemistry high-content imaging. The class given is cell-based.
Data set [3] relates to SH-SY5Y cells.
Text: The PKIS2 Library was supplied by The Structural Genomics Consortium at the University of North Carolina at Chapel Hill.
For data set [4], the system named is SH-SY5Y cells. Conditions: human.
Experimental: Total cell lysis with 5 µL 5% Triton-X 100 (Sigma-Aldrich, T8787) is used as a positive control for the assay and toxicity is expressed as a percentage of luminescence under DMSO conditions.
Data set [5] relates to SH-SY5Y cells. Conditions: human, SH-SY5Y cells, 24 h, 1 µM.
In data set [6] the test system is SH-SY5Y cells. As to the kind of experiment: Nuclear count from microscopy images (cellular growth and toxicity). Also: reference of the scale not given here. Conditions: PKIS2 primary screening.

Where two headings read alike, the source gives them in different places.
For AK in this document: reference of the scale not given here.
For DQ Intensity in this document: reference of the scale not given here.
For DQ Spot in this document: reference of the scale not given here.

For the compound `CC(=O)Nc1n[nH]c2ncc(-c3ccccc3)cc12` [SB-548492], the TFEB % in data set [1] is 4.73%. For the same compound, the TFE3 % in data set [2] is recorded as 13.46%. In data set [3], the “DQ Intensity” value stood at 81.01 and the “DQ Spot” value was 101.49. In addition, the AK in data set [4] (SH-SY5Y cells, 24 h, 1 µM) is on record as 85.75. In addition, in data set [5], the “Nuclear Count” value was 87.30.

In the case of `CCCC(=O)Nc1n[nH]c2ncccc12` [SB-601436], in data set [1], the TFEB % turned out to be 6.83%. In data set [2], this compound showed a TFE3 % of 11.89%. In data set [3], the “DQ Intensity” value turned out to be 119.21 and the “DQ Spot” value came to 109.95. For the same compound, in data set [4] (SH-SY5Y cells, 24 h, 1 µM), the AK worked out at 122.64. Moreover, the “Nuclear Count” value in data set [5] is 111.13.

In data set [1], `Nc1n[nH]c2cnc(-c3ccccc3)cc12` [SB-642124] gave a TFEB % of 10.03%. In data set [2], the TFE3 % is on record as 5.79%. Moreover, in data set [3], the “DQ Intensity” value is 94.71 and the “DQ Spot” value is on record as 98.20. Besides, the AK in data set [4] (SH-SY5Y cells, 24 h, 1 µM) is given as 86.32. For the same compound, the “Nuclear Count” value in data set [5] amounted to 121.57.

Take `O=C(Nc1n[nH]c2nc(-c3ccccc3)c(Br)cc12)C1CC1` [SB-708998]: the TFEB % in data set [1] is 9.86%. This compound gave a TFE3 % in data set [2] of 9.05%. In addition, in data set [3], the “DQ Intensity” value turned out to be 93.68 and the “DQ Spot” value is listed as 102.39. Further, the AK in data set [4] (SH-SY5Y cells, 24 h, 1 µM) was 115.51. For the same compound, the “Nuclear Count” value in data set [5] is listed as 73.65.

In data set [1], `O=C(Nc1n[nH]c2nc(-c3ccccc3)ccc12)C1CC1` [SB-708999] returned a TFEB % of 6.34%. The compound further came in with a TFE3 % in data set [2] of 15.72%. Besides, in data set [3], the “DQ Intensity” value is recorded as 102.03 and the “DQ Spot” value was found to be 111.17. In data set [4] (SH-SY5Y cells, 24 h, 1 µM), this compound had an AK of 67.50. Moreover, in data set [5], the “Nuclear Count” value is recorded as 127.54.

In the case of `COc1cccc(-c2ccc3c(NC(=O)C4CC4)n[nH]c3n2)c1` [SB-710903], the TFEB % in data set [1] is reported as 9.14%. Further, the TFE3 % in data set [2] turned out to be 8.53%. In data set [3], the “DQ Intensity” value was 82.25 and the “DQ Spot” value came to 92.88. This compound also gave an AK in data set [4] (SH-SY5Y cells, 24 h, 1 µM) of 104.06. For the same compound, in data set [5], the “Nuclear Count” value turned out to be 105.81.

Regarding `COc1ccccc1-c1ccc2c(NC(=O)C3CC3)n[nH]c2n1` [SB-711239], the TFEB % in data set [1] is recorded as 3.98%. In data set [2], this compound showed a TFE3 % of 10.01%. Further, in data set [3], the “DQ Intensity” value amounted to 73.89 and the “DQ Spot” value came to 92.69. The AK in data set [4] (SH-SY5Y cells, 24 h, 1 µM) is 73.81. Besides, in data set [5], the “Nuclear Count” value came out at 104.88.

Regarding `O=C(Nc1n[nH]c2nc(-c3ccccc3O)ccc12)C1CC1` [SB-711880], the TFEB % in data set [1] stood at 4.35%. Also, the TFE3 % in data set [2] was determined as 12.20%. Further, in data set [3], the “DQ Intensity” value is 70.14 and the “DQ Spot” value came to 92.53. The AK in data set [4] (SH-SY5Y cells, 24 h, 1 µM) came to 88.20. Moreover, the “Nuclear Count” value in data set [5] was 102.12.

As for `O=C(Nc1n[nH]c2cc(-c3cccs3)ccc12)C1CC1` [SB-731284], the TFEB % in data set [1] is given as 12.38%. Also, the TFE3 % in data set [2] was 10.84%. Besides, in data set [3], the “DQ Intensity” value was determined as 119.55 and the “DQ Spot” value was 107.15. The AK in data set [4] (SH-SY5Y cells, 24 h, 1 µM) was found to be 71.30. Moreover, the “Nuclear Count” value in data set [5] was determined as 98.09.

Turning to `CCN1CCN(CCCC(=O)Nc2n[nH]c3nc(-c4ccc(O)cc4)c(Br)cc23)CC1` [SB-731579], the TFEB % in data set [1] stood at 17.61%. The TFE3 % in data set [2] is reported as 6.82%. For the same compound, in data set [3], the “DQ Intensity” value came to 115.44 and the “DQ Spot” value stood at 103.09. In data set [4] (SH-SY5Y cells, 24 h, 1 µM), this compound showed an AK of 91.62. Further, the “Nuclear Count” value in data set [5] is 67.01.

In data set [1], `O=C(Nc1n[nH]c2cc(-c3ccsc3)ccc12)C1CC1` [SB-732932] displayed a TFEB % of 11.50%. Further, the TFE3 % in data set [2] amounted to 8.30%. Besides, in data set [3], the “DQ Intensity” value was found to be 63.56 and the “DQ Spot” value is reported as 84.83. The compound further had an AK in data set [4] (SH-SY5Y cells, 24 h, 1 µM) of 126.66. Besides, the “Nuclear Count” value in data set [5] is 130.18.

Regarding `O=c1cc(N2CCOCC2)nc2n(Cc3cccc(Cl)c3Cl)ccn12` [UNC10225167A], the TFEB % in data set [1] (PKIS2 primary screening) is on record as 3.69%. Further, in data set [2] (PKIS2 primary screening), the TFE3 % is reported as 15.96%. Also, in data set [3] (PKIS2 primary screening), the “DQ Intensity” value was 91.40 and the “DQ Spot” value turned out to be 112.20. The AK in data set [4] is recorded as 151.05. Further, in data set [6], the “Nuclear Count” value amounted to 101.24.
